# Entries after “also recorded” stand apart in the source; their conditions may differ.
# Columns and labels:
# human PBMCs [1] = experiment: ELISPOT assay of IFN-γ and IL-17 secreting cells; assay type: cell-based
# Method: Cells were plated with 14-3-3ζ protein in a 96-well plate for 14 days at 37° C. in complete RPMI culture medium. Phytohemagglutinin (PHA) was used as a positive control. 10 μl MTT was added at a concentration of 5 mg/mL, and the plate was further incubated at 37° C. in the dark for 3 hours. Supernatant was then removed, and 100 μL DMSO was added for another hour before reading the absorbance at 570 nm using FLUOstar Omega microplate reader (BMG Labtech). For T cell differentiation, PBMCs were incubated with 1 μg/ml of 14-3-3ζ for 7 days followed by either the cellular staining for FACS analysis or ELISPOT as per manufacture's protocol. For testing the effect of drugs, prednisolone, prednisone, as well as TJU103, were used at 1 μg/ml concentration and cyclophosphamide was used at 0.1 μg/ml concentration.
# The protocol was adopted from Immunospot kit from Cellular Technology Limited. In short, PBMCs incubated with 14-3-3ζ for 7 days were plated on the antibody coated ELISPOT plates. About 100,000 cells/well were added and incubated for 2 days at 37° C. followed by the developing protocol. Plates were read with a Quantihub ELISPOT plate reader and manually counted.
# rats = experiment: Immunization of rats with IFA and 14-3-3ζ without pristane; assay type: in vivo, rat; settings: pristane absent
# human PBMCs [2] = experiment: ELISA of secreted (accumulated) cytokines of PBMCs; assay type: cell-based; settings: PBMC in the presence of 14-3-3ζ
# [3] = tested on: PBMC isolated from normal Lewis rats; experiment: Proliferation of rat PBMC incubated ex vivo; assay type: cell-based; settings: incubated with 14-3-3ζ ex vivo
# human PBMCs [4] = experiment: PBMC proliferation, MTT assay; assay type: cell-based; settings: purified 14-3-3ζ 300 ng/ml and 1000 ng/ml, by 8 d; PHA 1% positive control
# Method: Blood from healthy donors was collected as per the approved IRB protocol. The protocol for isolation of PBMCs was previously reported. In short, whole blood was diluted with an equal volume of RPMI before layering on Ficoll-Paque PLUS in a 15 mL tube. Tubes were then centrifuged for 25 minutes with the brakes off at 950 g. PBMCs were collected from the layer between the plasma and Ficoll liquid. PBMCs were then washed twice with RPMI, with 7 min spins at 350×g to pellet the cells. Finally, cells were resuspended in complete RPMI before counting and plating. […] Phytohemagglutinin (PHA) was used as a positive control. 10 μl MTT was added at a concentration of 5 mg/mL, and the plate was further incubated at 37° C. in the dark for 3 hours. Supernatant was then removed, and 100 μL DMSO was added for another hour before reading the absorbance at 570 nm using FLUOstar Omega microplate reader (BMG Labtech). For T cell differentiation, PBMCs were incubated with 1 μg/ml of 14-3-3ζ for 7 days followed by either the cellular staining for FACS analysis or ELISPOT as per manufacture's protocol.
# human PBMCs [5] = experiment: T cell polarization of PBMCs by flow cytometry (CD4, CD366, IL-17, CD8, CD69); assay type: cell-based
# Method: Cells were plated with 14-3-3ζ protein in a 96-well plate for 14 days at 37° C. in complete RPMI culture medium. Phytohemagglutinin (PHA) was used as a positive control. 10 μl MTT was added at a concentration of 5 mg/mL, and the plate was further incubated at 37° C. in the dark for 3 hours. Supernatant was then removed, and 100 μL DMSO was added for another hour before reading the absorbance at 570 nm using FLUOstar Omega microplate reader (BMG Labtech). For T cell differentiation, PBMCs were incubated with 1 μg/ml of 14-3-3ζ for 7 days followed by either the cellular staining for FACS analysis or ELISPOT as per manufacture's protocol. […] PBMCs incubated with 14-3-3ζ for 7 days at 37° C. were fixed in 2% paraformaldehyde for an hour, and washed with PBS. […] For surface staining, cells were stained in 50 μL PBS with 5 μl per million cells antibody for 30 minutes in the dark on ice. For intracellular staining, cells were permeabilized with Triton for 10-15 min. After staining, cells were washed with PBS and resuspended in 1 mL PBS for analysis. The following antibodies from Biolegend Inc. were used: […] Cells were sorted at FACSCanto II system (BD Biosciences) and analyzed using FlowJo software (version 10). A gate was created around an initial population of cells in the FSC-SSC plot, and this population of cells was further analyzed for CD4, CD366, and IL-17 expression. Unstained and isotype labelled cells were used as a control for setting the gates.
# 14-3-3ζ KO rats = experiment: Pristane-induced arthritis in 14-3-3ζ KO rats, 14-3-3ζ immunization; assay type: in vivo, rat; settings: IFA+14-3-3ζ vs IFA, days post-pristane
# From the text: FIGS. 16A-16B, to determine whether 14-3-3ζ is sufficient for RA suppression, 14-3-3ζ KO rats that are more susceptible to RA were used.
# Lewis rats = experiment: Pristane-induced arthritis (PIA) model, immunization with 14-3-3ζ in IFA; assay type: in vivo, rat
# Method: FIG. 12A depicts the process used for this example for evaluating the prevention of RA in rats. All animals were injected with 150 μl of Pristane subcutaneously at the root of the tail followed by injecting either 1 mg/kg of IFA mixed with 14-3-3ζ protein or IFA alone the next day. Additional injection of either IFA alone or mixed with 14-3-3ζ proteins were given after one week. Animals were evaluated twice every week. Each joint (20 per paw, total of 80 per animal) was scored for inflammation. Both male and female rats were equally divided (n=6-8) between IFA and 14-3-3ζ treated sets. Rats were euthanized at 43 d and blood was collected for analysis.
# Exposure to 14-3-3ζ generates a strong immune response in Lewis rats. Due to highly reproducible induction of severe inflammation and chronic arthritis, PIA is a one of the standard models to investigate rheumatoid arthritis an autoimmune disease. Intradermal injection of Pristane leads to a strong T-cell infiltration, followed by a cytokine increase as well as visual manifestation of joint inflammation, prominently observed in the Lewis rats. To test the antigenic role of 14-3-3ζ in vivo, purified 14-3-3ζ protein was injected along with IFA one day after the animals were treated with Pristane (FIG. 12A).
# The animals were immunized with either IFA alone, or mixed with 14-3-3ζ (IFA+Z, 1 mg/kg) at 1 and 7 d-post pristine injection. Animals were monitored and scored for RA.
# human PBMCs [6] = experiment: T cell polarization of PBMCs by flow cytometry (CD4, CD366, IL-17, CD8, CD69); assay type: cell-based; settings: incubated with 14-3-3ζ, 3 d
# [7] = PIA treated Lewis rats immunized with 14-3-3ζ
substance,measurement,setting,value
"14-3-3ζ: human 14-3-3ζ protein, SEQ ID NO: 1, purified from E. coli; injected mixed with IFA in rats",level of IFN-γ (number of IFN-γ colonies) compared with 14-3-3ε,human PBMCs [1]; FIG. 6B and FIG. 12L,significantly more than 14-3-3ε
same,number of IFN-γ and IL-17 secreting cells,human PBMCs [1]; PBMC treated with protein for 7 d,robust response; also recorded: robust increase
same,induction of RA pathology (pathogenicity),rats; IFA and 14-3-3ζ,no significant induction of RA pathology
same,immunogenicity: 14-3-3ζ antibody generation and IL-17 induction,rats,14-3-3ζ antibody generation and IL-17 induction
same,IL-6 level,human PBMCs [2],no significant effect
same,accumulated secreted IL-17 (IL-17A),human PBMCs [2],significant increased accumulation
same,levels of IL-10 or IL-12,human PBMCs [2],no effect
same,rat PBMC proliferation,[3],increased proliferation
same,PBMC proliferation (MTT assay),human PBMCs [4],promoted; also recorded: strong proliferation induction; also recorded: comparable and dose-dependent effect
same,CD8+ cells (total number or activation),human PBMCs [5]; 14-3-3ζ treated PBMC,No significant increase; also recorded: No change; also recorded: no significant effect
same,total number of CD4+ cells,"human PBMCs [5]; 14-3-3ζ treated PBMC, 7 d",no significant change
same,CD4 cells positive for both CD366 and IL-17 (minor population <1%),human PBMCs [5]; presence of 14-3-3ζ,unchanged
same,"CD366 or IL-17 positive CD4 cells (Th1, Th17)","human PBMCs [5]; protein 1 μg/ml, 7 d",more CD366 or IL-17 positive CD4 cells; also recorded: significant increase
same,RA score,14-3-3ζ KO rats,suppressed the RA
same,body weight,14-3-3ζ KO rats,gain in body weights
same,joint inflammation / arthritis (RA) score,"Lewis rats; Lewis rats, pristane, 14-3-3ζ 1 mg/kg mixed with IFA at 1 and 7 d post pristane, compared to IFA alone, 1 mg/kg",protection against rheumatoid arthritis; also recorded: protection against the arthritis; also recorded: significantly less inflammation of joints; also recorded: significant reduction of RA scores; also recorded: absent; also recorded: relatively stronger inflammation in IFA treatment compared to 14-3-3ζ treatment; also recorded: no sign of arthritis; also recorded: prevents the development of RA
same,increase in the level of IFN-γ in the circulating sera,Lewis rats; [7],10 to 15 folds
same,increase in the level of IL-17 in the circulating sera,Lewis rats; [7],10 to 15 folds
same,increase in the level of anti-14-3-3ζ IgG in the circulating sera,Lewis rats; [7],10 to 15 folds
same,"anti-14-3-3ζ antibody level (sera, synovial fluid)",Lewis rats; compared to IFA alone,significant production of anti-14-3-3ζ IgG; also recorded: significantly higher levels; also recorded: increased 14-3-3ζ antibody levels
same,circulating (sera) IFN-γ level,Lewis rats; compared to IFA alone,significantly higher levels; also recorded: much higher levels
same,circulating IL-17 level,Lewis rats; compared to IFA alone,significantly higher levels
same,H&E stain: immune cell infiltration and tissue damage,Lewis rats; compared to IFA treated animal,lesser sign of inflammation and damage
same,CD69 expression on T cells (CD4 cells),human PBMCs [6],increases CD69 expression; also recorded: increased; also recorded: strong impact
